This note sets out measurements from ChEMBL document CHEMBL1145732, “Non-imidazole heterocyclic histamine H3 receptor antagonists” (Bioorg Med Chem Lett, 2003).

pKi: −log10 of the molar value.

One may read the pKi as the Ki on a negative log10 scale, so that one unit is a factor of ten. A low value points to a high Ki. The Papp is a coefficient for how fast a substance crosses the barrier. Lower therefore signals slow passage. For orientation: half-life means the time needed for the level to fall by half in the phase considered. Lower therefore signals fast loss.

The test system of one series is SK-N-MC. The series is described as follows: Compound was evaluated in a functional assay against […] cells stably transfected with the human H3 receptor. The series is classed as cell-based. The settings on record: read-out: pA2 (converted).
The next series concerns the target Histamine H3 receptor (Homo sapiens, UniProt Q9Y5N1). The series is described as follows: Binding affinity towards human Histamine H3 receptor using [3H]N-methyl-histamine as radioligand.
In the next series the test system is Caco-2. The series is described as follows: Permeability was evaluated using Caco-2 cells. The class given is functional, cell-based. Conditions: Homo sapiens. Background: Passage across Caco-2 layers is used to estimate intestinal permeability.
The nature of series [1]: Half-life was determined. Conditions: human. The series is classed as ADME.
The species entered for another series is Rattus norvegicus. The series is described as follows: Compound was evaluated in a functional assay for determining rat pA2. Conditions: read-out: pA2 (converted).

Sequence of Histamine H3 receptor (Q9Y5N1 whole entry): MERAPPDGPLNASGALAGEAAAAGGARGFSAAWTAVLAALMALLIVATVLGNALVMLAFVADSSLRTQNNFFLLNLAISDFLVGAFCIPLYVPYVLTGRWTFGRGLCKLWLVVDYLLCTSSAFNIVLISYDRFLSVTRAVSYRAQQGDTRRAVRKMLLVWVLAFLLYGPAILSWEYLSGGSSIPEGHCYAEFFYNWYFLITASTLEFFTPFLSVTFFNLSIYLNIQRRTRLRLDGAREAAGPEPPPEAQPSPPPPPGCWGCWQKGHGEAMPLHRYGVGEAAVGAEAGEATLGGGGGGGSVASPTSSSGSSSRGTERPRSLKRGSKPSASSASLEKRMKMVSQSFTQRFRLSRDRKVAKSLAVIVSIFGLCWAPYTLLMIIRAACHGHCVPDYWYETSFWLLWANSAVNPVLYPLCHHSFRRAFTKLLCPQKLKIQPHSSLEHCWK

Take `c1ccn2cc(-c3ccc(OCCCN4CCCCC4)cc3)cc2c1`: the Kb in the series on SK-N-MC was 3.16 nM; in the series filed under Rattus norvegicus it was 19.5 nM. At Histamine H3 receptor, this molecule showed a pKi of 7.89. Besides, the Papp in the series on Caco-2 was 0.14 ×10⁻⁶ cm/s. Further, the half-life in series [1] is 10 min.

Molecule `Cc1c(-c2ccc(OCCCN3CCCCC3)cc2)cc2ccccn12` had a pKi on Histamine H3 receptor of 8.70. The same molecule displayed a half-life in series [1] of 54 min.

Regarding `CCc1c(-c2ccc(OCCCN3CCCCC3)cc2)cc2ccccn12`, the negative-log Ki (pKi) on Histamine H3 receptor is 8.30.

With `c1ccc(CCc2c(-c3ccc(OCCCN4CCCCC4)cc3)cn3ccccc23)cc1`, the pKi on Histamine H3 receptor was 7.43.

As for `Cc1cccc2cc(-c3ccc(OCCCN4CCCCC4)cc3)cn12`, at Histamine H3 receptor, the pKi is 7.34.

`Cc1ccc2cc(-c3ccc(OCCCN4CCCCC4)cc3)cn2c1`: the pKi on Histamine H3 receptor is 7.55.

As for `c1ccn2nc(-c3ccc(OCCCN4CCCCC4)cc3)cc2c1`, on Histamine H3 receptor, the pKi was 7.96.

Turning to `Cc1cccn2cc(-c3ccc(OCCCN4CCCCC4)cc3)cc12`, on Histamine H3 receptor, the negative-log Ki (pKi) was 7.40.

`Cc1cc(OCCCN2CCCCC2)ccc1-c1cc2ccccn2c1`: the negative-log Ki (pKi) at Histamine H3 receptor was 6.82.

`c1cc(OCCCN2CCCCC2)cc(-c2cc3ccccn3c2)c1` had a pKi on Histamine H3 receptor of 6.51.

In turn, `CS(=O)(=O)n1c(-c2ccc(OCCCN3CCCCC3)cc2)cc2ccccc21` had a pKi at Histamine H3 receptor of 7.80.

Molecule `Cc1c(-c2ccc(OCCCN3CCCCC3)cc2)cn2ccccc12` had a pKi on Histamine H3 receptor of 7.80.

In turn, `Cc1ccn2cc(-c3ccc(OCCCN4CCCCC4)cc3)cc2c1` had a pKi at Histamine H3 receptor of 7.40.

On Histamine H3 receptor, `CCc1c(-c2ccc(OCCCN3CCCCC3)cc2)cn2ccccc12` showed a pKi of 7.72.

Regarding `c1ccc(-c2cc3ccccn3c2)c(OCCCN2CCCCC2)c1`, the pKi at Histamine H3 receptor was 6.63.

`Cc1cc(OCCCN2CCCCC2)ccc1-c1cn2ccccc2c1C` had a negative-log Ki (pKi) on Histamine H3 receptor of 7.96.

`c1ccc2[nH]c(-c3ccc(OCCCN4CCCCC4)cc3)cc2c1`: the negative logarithm of the Ki (pKi) at Histamine H3 receptor was 7.33.

As for `c1ccc(-c2c(-c3ccc(OCCCN4CCCCC4)cc3)cn3ccccc23)cc1`, on Histamine H3 receptor, the negative-log Ki (pKi) is 7.40.
